According to patent publication US20120165325A1, “Stable forms of N-(2,6-Dimethyl-4-morpholin-4-yl-phenyl)-3,3-dimethyl-butyramide” (H. Lundbeck A/S, priority 2009, published 2012):

Legend:
Male Wistar rats [1] = assay: Motility inhibition (potential sedative properties, without d-amphetamine); type: in vivo; conditions: rat, std. dev. in brackets
Source text: Subjects. Male Wistar rats (Taconic, Denmark) weighing 170-240 g are used.
Experimental procedure. […] Recording of a motility count required interruption of adjacent light beams, thus avoiding counts induced by stationary movements of the rat.

Male Wistar rats [2] = assay: Amphetamine challenge: antagonism of d-amphetamine induced hyperactivity; type: in vivo; conditions: rat; s.c. 30 min before d-amphetamine sulphate 0.5 mg/kg; motility over 2 hours; std. dev. in brackets
Method: Subjects. Male Wistar rats (Taconic, Denmark) weighing 170-240 g are used. The animals were housed under a 12-hr light/dark cycle under controlled conditions for regular in-door temperature (21±2° C.) and humidity (55±5%) with food and tap water available ad libitum. Eight rats were used at each dose level and in the parallel control group receiving the vehicle to the test compound plus d-amphetamine and the group receiving vehicle injections only.
Experimental procedure. The experiment was made in normal light conditions in an undisturbed room. The test substance was injected 30 min before s.c. before the injection of d-amphetamine sulphate (0.5 mg/kg). Immediately after injection of d-amphetamine, the rats were placed individually in the test cages that were placed in a U-frame, equipped with 4 infrared light sources and photocells. The light beams crossed the cage 4 cm above the cage floor. Recording of a motility count required interruption of adjacent light beams, thus avoiding counts induced by stationary movements of the rat. Motility (counts) was recorded for a period of 2 hours. The mean motility induced by vehicle (saline) treatment in the absence of d-amphetamine was used as baseline. The 100 percent effect of d-amphetamine was accordingly calculated to be total motility counts minus baseline. The response in groups receiving test compound was thus determined by the total motility counts minus baseline, expressed in percent of the similar result recorded in the parallel amphetamine control group. The percent responses were converted to percent inhibition from which ED50 values were calculated by means of log-probit analyses. In a parallel set of data, the potential sedative properties (motility inhibition) of the test compounds were evaluated using essentially the same procedure with the exception of not administering d-amphetamine-sulphate at the initiation of locomotor assessment.

Male NMRI mice [3] = assay: Amphetamine sensitisation: inhibition of the sensitised behavioural response to amphetamine; type: in vivo, mouse; conditions: amphetamine-pretreated mice, s.c. 30 min before D-amphetamine challenge 1.25 mg/kg s.c., 30 min test, S.D. in brackets
Method: Subjects. […] The animals were housed 6 mice pr cage in a 12-hr light/dark cycle under controlled conditions for regular in-door temperature (21±2° C.) and humidity (55±5%) with food and tap water available ad libitum.
Experimental procedure. […] 5×8 infrared light sources and photocells interspaced by 4 cm monitor the locomotor activity.
Administration of compounds.
Data analyses. […] A therapeutic index value can subsequently be calculated by dividing the first ED50 by the second.

Male NMRI mice [4] = assay: Inhibition of baseline motility in vehicle-pretreated, vehicle-challenged mice; type: in vivo, mouse; conditions: 30 min test
Method: (§1) Subjects. Male NMRI mice (Charles River) weighing approx. 35 g were used. The animals were housed 6 mice pr cage in a 12-hr light/dark cycle under controlled conditions for regular in-door temperature (21±2° C.) and humidity (55±5%) with food and tap water available ad libitum. 12 mice were used pr experimental group.
Experimental procedure. All mice were pre-treated once daily for five days with either d-amphetamine sulphate (2.5 mg/kg s.c.) or saline (10 ml/kg). For the 17 days between the last day of pre-treatment and the test day, the animals were kept in their home cage receiving the standard care as described above. […] The recording of a motility counted requires interruption of adjacent light beams, thereby avoiding counts induced by stationary movements of the mice. […]
Data analyses. […] That is, the response in amphetamine-sensitized groups receiving test compound was thus determined as the sensitised response minus the baseline motility, expressed in percent of the similar result recorded in the sensitized amphetamine response group. […] Similarly, an ED50 for inhibiting baseline motility was calculated by expressed the motility response in vehicle-pretreated, vehicle-challenged, drug-treated animals relative to the baseline motility response. A therapeutic index value can subsequently be calculated by dividing the first ED50 by the second.

[5] = Intrinsic dissolution rate (37C); type: physicochemical
[6] = Solid form stability at 60° C. and 95% relative humidity; type: physicochemical; conditions: relative humidity of 95%
Male NMRI mice [7] = assay: Forced swim test; type: in vivo, mouse; conditions: 30 min before test, last 3 min of 6 min swim, vehicle = 100
Method: as §1, with “weighing 23-25” for “weighing approx. 35”, “The mice” for “The animals”, “were kept 8” for “were housed 6”, “libitum. 8” for “libitum. 12”
Experimental procedure. The mice were placed in 2000 ml beaker containing 1200 ml of tempered water (25° C.) and left to swim for 6 min. The performance of the mice was video recorded, digitalized and analysed by means of a digital analysis system (Bioobserve). The time spent immobile for the last 3 min. of the test session was quantified for each mouse.
Treatment. 30 min. before the test, mice were treated s.c. with N-(2,6-dimethyl-4-morpholin-4-yl-phenyl)-3,3-dimethyl-butyramide or vehicle (10-%-2-OH-propyl-cyclodextrin, 10 ml/kg). In addition as positive control, imipramine-HCl (40 mg/kg) and a saline control (10 ml/kg) was included.
Analyses. The time spent immobile was statistically compared across the experimental groups against the relevant control group by means of one-way analysis of variance. A post-hoc test (Student-Newman-Keuls) was employed when appropriate. P-levels <0.05 were considered significant.

## Lithium-chloride
Male Wistar rats [1]
  Motility inhibition ED50 ± std. dev.: >40 mg/kg
Male Wistar rats [2]
  Amphetamine antagonism ED50 ± std. dev.: 12 (1.7) mg/kg
Male NMRI mice [3]
  Inhibition of amphetamine sensitised response. ED50 (±S.D.): 34 (7.2) mg/kg
Male NMRI mice [4]
  Inhibition of baseline motility. ED50 (±S.D.): >>40 mg/kg

## Cc1cc(N2CCOCC2)cc(C)c1NC(=O)CC(C)(C)C [β form, N-(2,6-Dimethyl-4-morpholin-4-yl-phenyl)-3,3-dimethyl-butyramide, β form]
[5]; listed as β
  Intrinsic dissolution rate (37C): 0.026 mg//cm^2/min
[6]; listed as β
  Stability: solid form stable for: Solid form stable for >90 days at 60 °C

## Cc1cc2c(s1)Nc1ccccc1N=C2N1CCN(C)CC1 [Olanzapine, reference compound]
Male NMRI mice [7]; dose 0.31 mg/kg
  Immobility in % (±S.D.): 96%
Male NMRI mice [7]; dose 1.3 mg/kg
  Immobility in % (±S.D.): 95%
Male Wistar rats [2]
  ED50: 0.21 mg/kg
Male NMRI mice [3]; Mus musculus
  ED50: 0.11 mg/kg

## Cc1cc(N2CCOCC2)cc(C)c1NC(=O)CC(C)(C)C [α form, N-(2,6-Dimethyl-4-morpholin-4-yl-phenyl)-3,3-dimethyl-butyramide, α form]
[5]; listed as α
  Intrinsic dissolution rate (37C): 0.021 mg//cm^2/min
[6]; listed as α
  Stability: solid form stable for: Solid form stable for >90 days at 60 °C

## Cc1cc(N2CCOCC2)cc(C)c1NC(=O)CC(C)(C)C [γ form, N-[2,6-Dimethyl-4-morpholin-4-yl-phenyl]-3,3-dimethyl-butyramide, γ form]
[5]; listed as γ
  Intrinsic dissolution rate (37C): 0.036 mg//cm^2/min
[6]; listed as γ
  Stability: solid form stable for: Solid form stable for >14 days at 60 °C
